Results as given in publication PMC10224441, “Structural Manipulations of Marine Natural Products Inspire a New Library of 3-Amino-1,2,4-Triazine PDK Inhibitors Endowed with Antitumor Activity in Pancreatic Ductal Adenocarcinoma” (Marine Drugs, 2023).
Structures can show the parent of a compound that is named as a salt. Where two headings read alike, the source gives them in different places.

Assays:
recombinant human PDK1 = target: T1, recombinant human PDK1 (Homo sapiens, UniProt Q15118); assay: PDK1 ADPGlo Kinase Assay; format: biochemical; conditions: for IC50: isolated PDK1 isoform, four-parameter logistic model, mean of 3 independent experiments, read-out: IC50 (µM) ± S.D. PDK1
T1 construct: purchased Abcam
T1 sequence (Q15118 29-436): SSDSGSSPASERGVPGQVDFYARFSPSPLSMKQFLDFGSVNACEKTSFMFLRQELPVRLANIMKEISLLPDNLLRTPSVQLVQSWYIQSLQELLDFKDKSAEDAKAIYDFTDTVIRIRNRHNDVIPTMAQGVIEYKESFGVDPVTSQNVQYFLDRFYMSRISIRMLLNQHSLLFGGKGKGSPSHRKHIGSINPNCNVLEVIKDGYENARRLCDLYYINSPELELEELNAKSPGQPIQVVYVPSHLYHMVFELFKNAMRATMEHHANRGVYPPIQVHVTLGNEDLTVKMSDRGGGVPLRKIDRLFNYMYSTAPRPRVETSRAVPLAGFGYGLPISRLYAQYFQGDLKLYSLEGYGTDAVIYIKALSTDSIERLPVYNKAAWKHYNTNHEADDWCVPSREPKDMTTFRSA
Protocol: The ability of the tested compounds to hamper the activity of PDK1-4 isoforms was firstly evaluated by means of a chemioluminescent assay, the ADPGlo™ Kinase Assay kit (Promega Corporation, Madison, WI, USA).
The in vitro inhibitory activity of tested compounds on recombinant human PDK1-4 isoforms (Abcam, Cambridge, MA, USA) was evaluated by using the ADPGlo™ Kinase Assay kit from Promega (Promega Corporation, Madison, WI, USA) following the instructions of the manufacturer, as previously described.

[1] = test system: PSN-1 cells (KRAS-mutant PDAC); assay: 2D cytotoxicity, MTT assay, PSN-1; format: cell-based; conditions: Homo sapiens, read-out: IC50 (µM) ± S.D. PSN-1 (2D)
Protocol: (§1) All newly developed 1,2,4-amino-triazine compounds were screened for their cytotoxic activity against two human PDAC cell lines, namely, a KRAS-wild-type PDAC cell line (BxPC-3 cells) and a KRAS-mutant PDAC cell line (PSN-1 cells). […] The cytotoxicity parameters, expressed in terms of IC50 and obtained after 72 h of drug exposure by MTT assay, are reported in Table 3.
(§2) All tested compounds were dissolved in DMSO just before the experiment, and a calculated amount of drug solution was added to the cell growth medium to a final solvent concentration of 0.5%, which had no detectable effects on cell viability.
(§3) Human pancreatic PSN-1 and BxPC-3 carcinoma cell lines were obtained by American Type Culture Collection (ATCC, Rockville, MD, USA). Cell lines were maintained in the logarithmic phase at 37 °C in a 5% carbon dioxide atmosphere using RPMI-1640 medium (EuroClone) containing 10% fetal calf serum (EuroClone, Milan, Italy), antibiotics (50 units/mL penicillin and 50 μg/mL streptomycin) and 2 mM l-glutamine.
(§4) The growth inhibitory effect on tumor cells was evaluated by means of MTT assay. Briefly, 5 × 10^3 cells/well were seeded in 96-well microplates in a growth medium (100 μL). After 24 h, the medium was removed and replaced with a fresh one containing the compound to be studied at the appropriate concentration. Triplicate cultures were established for each treatment. After 72 h, each well was treated with 10 μL of a 5 mg/mL MTT saline solution, and following 5 h of incubation, 100 μL of a sodium dodecyl sulfate (SDS) solution in HCl 0.01 M was added. After overnight incubation, cell growth inhibition was detected by measuring the absorbance of each well at 570 nm using a Bio-Rad 680 microplate reader. The mean absorbance for each drug dose was expressed as a percentage of the control untreated well absorbance and plotted vs. drug concentration. IC50 values, the drug concentrations that reduce the mean absorbance at 570 nm to 50% of those in the untreated control wells, were calculated by the four-parameter logistic (4-PL) model. The evaluation was based on means from at least four independent experiments.

[2] = test system: BxPC-3 cells (KRAS-wild-type PDAC); assay: 2D cytotoxicity, MTT assay, BxPC-3; format: cell-based; conditions: Homo sapiens, read-out: IC50 (µM) ± S.D. BxPC-3 (2D)
Protocol: as §1, §2, §3, §4

BxPC-3 spheroids = assay: 3D spheroid cytotoxicity, acid phosphatase (APH) assay, BxPC-3; format: cell-based; conditions: Homo sapiens, 72 h, acid phosphatase (APH) test, read-out: IC50 (µM) ± S.D. BxPC-3 (3D spheroids)
PSN-1 spheroids = assay: 3D spheroid cytotoxicity, acid phosphatase (APH) assay, PSN-1; format: cell-based; conditions: Homo sapiens, PSN1, 72 h, acid phosphatase (APH) test, read-out: IC50 (µM) ± S.D. PSN-1 (3D spheroids)
Protocol: Prompted by these encouraging results, we also screened the newly developed 1,2,4-triazine compounds against 3D spheroids of PDAC KRAS wild-type and mutant cells, to further estimate their anticancer potential in a more predictive environment. […] The PDAC cancer spheroids were treated with tested compounds for 72 h, and cell viability was assessed by means of the acid phosphatase (APH) assay (Table 3). The efficacy of gemcitabine as well as of DCA and DAP was assessed under the same experimental conditions.
Spheroid cultures were obtained by seeding 2.5 × 10^3 PSN-1 cancer cells/well in a round-bottom non-treated tissue culture 96-well plate (Greiner Bio-one, Kremsmünster, Austria) in phenol red-free RPMI-1640 medium (Sigma Chemical Co, St. Louis, MO, USA) containing 10% fetal calf serum and supplemented with 20% methylcellulose stock solution.
An APH-modified assay was used for determining cell viability in 3D spheroids, as previously described. Briefly, the pre-seeded spheroids were treated with fresh medium containing the compound to be studied at the appropriate concentration (range 2.5–200 μM). Triplicate cultures were established for each treatment. After 72 h, each well was treated with 100 μL of the assay buffer (0.1 M sodium acetate, 0.1% Triton-X-100, supplemented with ImmunoPure p-nitrophenyl phosphate; Sigma Chemical Co.) and, following 3 h of incubation, 10 μL of 1 M NaOH solution were added. The inhibition of the cell growth induced by the tested compounds was detected by measuring the absorbance of each well at 405 nm, using a Bio-Rad 680 microplate reader. The mean absorbance for each drug dose was expressed as a percentage of the control untreated well absorbance (T/C) and plotted vs. drug concentration. IC50 values, the drug concentrations that reduce the mean absorbance at 405 nm 50% of those in the untreated control wells, were calculated by the four-parameter logistic (4-PL) model. The evaluation was based on means from at least four independent experiments.

recombinant human HSP90 = recombinant human HSP90 (Homo sapiens, UniProt P07900); assay: HSP90 inhibition assay (Transcreener ADP kit); format: biochemical; conditions: isolated HSP90; four-parameter logistic model; mean of 3 independent experiments; read-out: IC50 (µM) ± S.D. HSP90
Protocol: Since the ATP binding pockets in PDKs and HSP90 are similar and taking into consideration that these 1,2,4-triazine derivatives conserved a chemical scaffold resembling that of the well-known Hsp90 inhibitor Ganetespib, the most performant PDK inhibitors 4d, 4f, 4h, 5d, 5f, 5h and 5j were also screened for their ability to target HSP90.
The in vitro inhibitory activity of tested compounds on recombinant human HSP90 was assessed by The Transcreener™ ADP kit (Bellbrook Labs, Madison, WI, USA) according to the manufacturer’s protocol as previously described.

[3] = PSN1, 72 h exposure, MTT test, 2D culture
[4] = BXPC-3, 72 h exposure, MTT test, 2D culture

SMILES | IC50 (recombinant human PDK1) [µM] | IC50 [1, 3] [µM] | melting point [°C] | IC50 [2, 4] [µM] | IC50 (BxPC-3 spheroids) [µM] | IC50 (PSN-1 spheroids) [µM] | IC50 (recombinant human HSP90) [µM] | IC50 ([1]; PSN1, 72 h) [µM] | IC50 ([2]; BXPC-3, 72 h) [µM] | decrease in potency on PDK1 relative to 5d and 5j (recombinant human PDK1; compared with the other two examined ligands (5d, 5j)) [fold]
COc1ccc2c(c1)c(-c1nnc(N)nc1-c1cn(C)c3ncccc13)cn2C [4i, 6-(5-methoxy-1-methyl-1H-indol-3-yl)-5-(1-methyl-1H-pyrrolo[2,3-b]pyridin-3-yl)-1,2,4-triazin-3-amine] | 0.33 ± 0.1 | 26.5 ± 4 | 217 | 31.2 ± 5.5 | 189 ± 10.9 | 140 ± 7.5 |  |  |  | 
Cn1cc(-c2nc(N)nnc2-c2cn(C)c3ncccc23)c2cc(F)ccc21 [5g, 5-(5-Fluoro-1-methyl-1H-indol-3-yl)-6-(1-methyl-1H-pyrrolo[2,3-b]pyridin-3-yl)-1,2,4-triazin-3-amine] | 0.29 ± 0.1 | 15.2 ± 4.6 | 281.4 | 19.8 ± 3.2 | 79.7 ± 11.4 | 130 ± 11.8 |  |  |  | 
Cn1cc(-c2nnc(N)nc2-c2cn(C)c3ncccc23)c2cc(F)ccc21 [4g, 6-(5-Fluoro-1-methyl-1H-indol-3-yl)-5-(1-methyl-1H-pyrrolo[2,3-b]pyridin-3-yl)-1,2,4-triazin-3-amine] | 0.19 ± 0.04 | 4.5 ± 1.3 | 267.4 | 6.5 ± 1.1 | 71.5 ± 5.2 | 65.5 ± 6.8 |  |  |  | 
O=C(c1ccccc1)C(Cl)Cl [DAP, 2,2-dichloroacetophenone, reference compound] | 212 ± 48 |  |  |  | 78.2 ± 6.2 | 87.4 ± 8.9 | 698 ± 83 | 10.2 ± 1.6 | 16.5 ± 0.9 | 
Cn1cc(-c2nnc(N)nc2-c2cn(C)c3ncccc23)c2cc(Cl)ccc21 [4e, 6-(5-Chloro-1-methyl-1H-indol-3-yl)-5-(1-methyl-1H-pyrrolo[2,3-b]pyridin-3-yl)-1,2,4-triazin-3-amine] | 0.29 ± 0.06 | 26.5 ± 4.3 | 178 | 32.3 ± 8.2 | 160 ± 11.4 | 59.6 ± 4.5 |  |  |  | 6
COc1ccc2c(c1)c(-c1nc(N)nnc1-c1cn(C)c3ncccc13)cn2C [5i, 5-(5-Methoxy-1-methyl-1H-indol-3-yl)-6-(1-methyl-1H-pyrrolo[2,3-b]pyridin-3-yl)-1,2,4-triazin-3-amine] | 0.31 ± 0.07 | 14.9 ± 3.2 | 288.2 | 0.31 ± 0.07 | 153 ± 10.3 | 112 ± 9.1 |  |  |  | 
Cn1cc(-c2nc(N)nnc2-c2cn(C)c3ncccc23)c2cc(Cl)ccc21 [5e, 5-(5-Chloro-1-methyl-1H-indol-3-yl)-6-(1-methyl-1H-pyrrolo[2,3-b]pyridin-3-yl)-1,2,4-triazin-3-amine] | 0.32 ± 0.1 | 14.2 ± 3.1 | 310.3 | 16.5 ± 3.8 | 200 ± 16.3 | 198 ± 12.4 |  |  |  | 
Cn1cc(-c2nc(N)nnc2-c2cn(C)c3ncccc23)c2cc(Br)ccc21 [5c, 5-(5-bromo-1-methyl-1H-indol-3-yl)-6-(1-methyl-1H-pyrrolo[2,3-b]pyridin-3-yl)-1,2,4-triazin-3-amine] | 0.27 ± 0.08 | 9.2 ± 1.9 | 304.5 | 13.7 ± 2.9 | 156 ± 11.7 | 78.4 ± 5.8 |  |  |  | 
COc1ccc2c(c1)c(-c1nnc(N)nc1-c1cn(C)c3ncc(Br)cc13)cn2C [4j, 5-(5-Bromo-1-methyl-1H-pyrrolo[2,3-b]pyridin-3-yl)-6-(5-methoxy-1-methyl-1H-indol-3-yl)-1,2,4-triazin-3-amine] | 0.18 ± 0.06 | 27.8 ± 3.8 | 197.6 | 30.5 ± 3.4 | 160 ± 10.5 | 103 ± 8.7 |  |  |  | 
O=C(O)C(Cl)Cl [DCA, Dichloroacetate, reference compound] |  |  |  |  |  | 29800 ± 357 |  | > 1000 | > 1000 | 
Nc1ccn([C@@H]2O[C@H](CO)[C@@H](O)C2(F)F)c(=O)n1 [Gemcitabine, gemcitabine hydrochloride, reference compound] |  | 0.1 ± 0.04 |  | 0.02 ± 0.003 | 160 ± 5.6 | 103 ± 6.3 |  |  |  | 
Cn1cc(-c2nnc(N)nc2-c2cn(C)c3ncc(Br)cc23)c2ccccc21 [4b, 5-(5-Bromo-1-methyl-1H-pyrrolo[2,3-b]pyridin-3-yl)-6-(1-methyl-1H-indol-3-yl)-1,2,4-triazin-3-amine] | 0.33 ± 0.05 | 19.5 ± 2.9 | 260 | 23.5 ± 3.2 | 224 ± 14.8 | 188 ± 13.8 |  |  |  | 
Cn1cc(-c2nnc(N)nc2-c2cn(C)c3ncccc23)c2ccccc21 [4a, 6-(1-Methyl-1H-indol-3-yl)-5-(1-methyl-1H-pyrrolo[2,3-b]pyridin-3-yl)-1,2,4-triazin-3-amine] | 0.3 ± 0.1 | 11.3 ± 2 | 268.1 | 15.7 ± 2.2 | 141.3 ± 0.1 | 97.5 ± 2.8 |  |  |  | 
Cn1cc(-c2nc(N)nnc2-c2cn(C)c3ncccc23)c2ccccc21 [5a, 5-(1-Methyl-1H-indol-3-yl)-6-(1-methyl-1H-pyrrolo[2,3-b]pyridin-3-yl)-1,2,4-triazin-3-amine] | 0.32 ± 0.1 | 22.2 ± 2.7 | 235.5 | 27.2 ± 3.7 | 170 ± 9.4 | 78.8 ± 8.5 |  |  |  | 
Cn1cc(-c2nc(N)nnc2-c2cn(C)c3ncc(Br)cc23)c2ccccc21 [5b, 6-(5-Bromo-1-methyl-1H-pyrrolo[2,3-b]pyridin-3-yl)-5-(1-methyl-1H-indol-3-yl)-1,2,4-triazin-3-ylamine] | 0.21 ± 0.07 | 5.2 ± 0.9 |  | 9.4 ± 1.3 | 68.5 ± 2.5 | 73.6 ± 6.8 |  |  |  | 
Cn1cc(-c2nnc(N)nc2-c2cn(C)c3ncccc23)c2cc(Br)ccc21 [4c, 6-(5-Bromo-1-methyl-1H-indol-3-yl)-5-(1-methyl-1H-pyrrolo[2,3-b]pyridin-3-yl)-1,2,4-triazin-3-amine] | 0.26 ± 0.07 | 7.8 ± 1.5 | 176.3 | 9.5 ± 1.7 | 76.8 ± 5.1 | 55.8 ± 3.5 |  |  |  | 
